± gives the expanded uncertainty stated by the source.
Assay: activity coefficient (dimensionless); of the first substance listed, at infinite dilution; xn = mol fraction of the nth substance listed
Settings: Liquid, Chromatography, x1 = 0

CCOCC [diethyl ether] + CCCCCCCC[N+](C)(C)C.O=S(=O)([N-]S(=O)(=O)C(F)(F)F)C(F)(F)F
activity coefficient (322.85 K): 1.6 ± 0.06
activity coefficient (332.65 K): 1.57 ± 0.06
activity coefficient (343.15 K): 1.53 ± 0.06

CC#N [acetonitrile] + CCCCCCCC[N+](C)(C)C.O=S(=O)([N-]S(=O)(=O)C(F)(F)F)C(F)(F)F
activity coefficient (322.85 K): 0.48 ± 0.03
activity coefficient (332.65 K): 0.46 ± 0.03
activity coefficient (343.15 K): 0.44 ± 0.03

C[N+](=O)[O-] [nitromethane] + CCCCCCCCCC[N+](C)(C)C.O=S(=O)([N-]S(=O)(=O)C(F)(F)F)C(F)(F)F
activity coefficient (322.85 K): 0.56 ± 0.03
activity coefficient (332.65 K): 0.58 ± 0.03
activity coefficient (343.15 K): 0.55 ± 0.03

CCCCCCC [heptane] + CCCCCCCC[N+](CCCCCCCC)(CCCCCCCC)CCCCCCCC.O=S(=O)([N-]S(=O)(=O)C(F)(F)F)C(F)(F)F
activity coefficient (322.85 K): 1.5 ± 0.06
activity coefficient (332.65 K): 1.48 ± 0.06
activity coefficient (343.15 K): 1.47 ± 0.06

CC(C)OC(C)C [diisopropyl ether] + CCCCCCCC[N+](C)(C)C.O=S(=O)([N-]S(=O)(=O)C(F)(F)F)C(F)(F)F
activity coefficient (322.85 K): 3.22 ± 0.15
activity coefficient (332.65 K): 3.15 ± 0.14
activity coefficient (343.15 K): 3.08 ± 0.14

CC1CCCCC1 [methylcyclohexane] + CCCCCCCCCC[N+](C)(C)C.O=S(=O)([N-]S(=O)(=O)C(F)(F)F)C(F)(F)F
activity coefficient (322.85 K): 3.57 ± 0.16
activity coefficient (332.65 K): 3.57 ± 0.16
activity coefficient (343.15 K): 3.39 ± 0.15

CCCC=O [butanal] + CCCCCCCC[N+](CCCCCCCC)(CCCCCCCC)CCCCCCCC.O=S(=O)([N-]S(=O)(=O)C(F)(F)F)C(F)(F)F
activity coefficient (343.15 K): 0.31 ± 0.04

ClC(Cl)Cl [trichloromethane] + CCCC[N+](C)(CCCC)CCCC.O=S(=O)([N-]S(=O)(=O)C(F)(F)F)C(F)(F)F
activity coefficient (322.85 K): 0.84 ± 0.03
activity coefficient (332.65 K): 0.87 ± 0.03
activity coefficient (343.15 K): 0.88 ± 0.03

Cc1ccccc1C [1,2-dimethylbenzene] + CCCCCCCC[N+](CCCCCCCC)(CCCCCCCC)CCCCCCCC.O=S(=O)([N-]S(=O)(=O)C(F)(F)F)C(F)(F)F
activity coefficient (332.65 K): 0.57 ± 0.03
activity coefficient (343.15 K): 0.58 ± 0.03

CO [methanol] + CCCC[N+](C)(CCCC)CCCC.O=S(=O)([N-]S(=O)(=O)C(F)(F)F)C(F)(F)F
activity coefficient (322.85 K): 0.96 ± 0.03
activity coefficient (332.65 K): 0.75 ± 0.03
activity coefficient (343.15 K): 0.88 ± 0.03

OCC(F)(F)F [2,2,2-trifluoroethanol] + CCCCCCCC[N+](C)(C)C.O=S(=O)([N-]S(=O)(=O)C(F)(F)F)C(F)(F)F
activity coefficient (322.85 K): 0.4 ± 0.03
activity coefficient (332.65 K): 0.38 ± 0.03
activity coefficient (343.15 K): 0.35 ± 0.04

Cc1cccc(C)c1 [1,3-dimethylbenzene] + CCCCCCCCCC[N+](C)(C)C.O=S(=O)([N-]S(=O)(=O)C(F)(F)F)C(F)(F)F
activity coefficient (322.85 K): 1.11 ± 0.03
activity coefficient (332.65 K): 1.14 ± 0.03
activity coefficient (343.15 K): 1.11 ± 0.03

C=O [methanal] + CCCC[N+](C)(CCCC)CCCC.O=S(=O)([N-]S(=O)(=O)C(F)(F)F)C(F)(F)F
activity coefficient (322.85 K): 0.11 ± 0.04
activity coefficient (332.65 K): 0.12 ± 0.04
activity coefficient (343.15 K): 0.13 ± 0.04

Cc1ccc(C)cc1 [1,4-dimethylbenzene] + CCCCCCCCCC[N+](C)(C)C.O=S(=O)([N-]S(=O)(=O)C(F)(F)F)C(F)(F)F
activity coefficient (322.85 K): 1.12 ± 0.03
activity coefficient (332.65 K): 1.15 ± 0.04
activity coefficient (343.15 K): 1.13 ± 0.03

CCC(=O)CC [pentan-3-one] + CCCC[N+](C)(CCCC)CCCC.O=S(=O)([N-]S(=O)(=O)C(F)(F)F)C(F)(F)F
activity coefficient (322.85 K): 0.5 ± 0.03
activity coefficient (332.65 K): 0.54 ± 0.03
activity coefficient (343.15 K): 0.56 ± 0.03

CC1CCCC1 [methylcyclopentane] + CCCC[N+](C)(CCCC)CCCC.O=S(=O)([N-]S(=O)(=O)C(F)(F)F)C(F)(F)F
activity coefficient (322.85 K): 4.75 ± 0.22
activity coefficient (332.65 K): 4.74 ± 0.22
activity coefficient (343.15 K): 4.5 ± 0.21

CCCCO [butan-1-ol] + CCCCCCCC[N+](CCCCCCCC)(CCCCCCCC)CCCCCCCC.O=S(=O)([N-]S(=O)(=O)C(F)(F)F)C(F)(F)F
activity coefficient (322.85 K): 3.08 ± 0.14
activity coefficient (332.65 K): 1.12 ± 0.03
activity coefficient (343.15 K): 1.04 ± 0.03

CCOCC [diethyl ether] + CCCC[N+](C)(CCCC)CCCC.O=S(=O)([N-]S(=O)(=O)C(F)(F)F)C(F)(F)F
activity coefficient (322.85 K): 1.65 ± 0.07
activity coefficient (332.65 K): 1.67 ± 0.07
activity coefficient (343.15 K): 1.65 ± 0.07

CCc1ccccc1 [ethylbenzene] + CCCCCCCC[N+](CCCCCCCC)(CCCCCCCC)CCCCCCCC.O=S(=O)([N-]S(=O)(=O)C(F)(F)F)C(F)(F)F
activity coefficient (322.85 K): 0.59 ± 0.03
activity coefficient (332.65 K): 0.6 ± 0.03
activity coefficient (343.15 K): 0.61 ± 0.03

C=O [methanal] + CCCCCCCCCC[N+](C)(C)C.O=S(=O)([N-]S(=O)(=O)C(F)(F)F)C(F)(F)F
activity coefficient (322.85 K): 0.09 ± 0.04
activity coefficient (332.65 K): 0.1 ± 0.04
activity coefficient (343.15 K): 0.11 ± 0.04

CCCCCCCCC [nonane] + CCCC[N+](C)(CCCC)CCCC.O=S(=O)([N-]S(=O)(=O)C(F)(F)F)C(F)(F)F
activity coefficient (322.85 K): 16.5 ± 0.76
activity coefficient (332.65 K): 16.1 ± 0.74
activity coefficient (343.15 K): 15 ± 0.69

C=O [methanal] + CCCCCCCC[N+](C)(C)C.O=S(=O)([N-]S(=O)(=O)C(F)(F)F)C(F)(F)F
activity coefficient (322.85 K): 0.1 ± 0.04
activity coefficient (332.65 K): 0.11 ± 0.04
activity coefficient (343.15 K): 0.12 ± 0.04

Source: the NIST ThermoML archive (doi:10.1021/je200637v)
